Reference: patent US8470810B2, “Heterocyclic compounds suitable for treating disorders that respond to modulation of the dopamine D3 receptor” (Abbott GmbH & Co. KG, priority 2004, dated 2013)
pKi: −log10 of the molar value.

Legend:
[1] = biological target: T1, human dopamine D3 receptors (Homo sapiens, UniProt P35462); experiment: Dopamine D3 receptor binding, displacement of [125I]-iodosulpride; settings: for pKi: membranes of HEK-293 cells stably expressing human D3, 0.1 nM [125I]-iodosulpride, 25° C., 60 minutes; for Ki(D2)*/Ki(D3)*: selectivity ratio of the receptor binding constants D2 over D3
T1 construct: expressed in transfected cells
T1 sequence (P35462 whole entry): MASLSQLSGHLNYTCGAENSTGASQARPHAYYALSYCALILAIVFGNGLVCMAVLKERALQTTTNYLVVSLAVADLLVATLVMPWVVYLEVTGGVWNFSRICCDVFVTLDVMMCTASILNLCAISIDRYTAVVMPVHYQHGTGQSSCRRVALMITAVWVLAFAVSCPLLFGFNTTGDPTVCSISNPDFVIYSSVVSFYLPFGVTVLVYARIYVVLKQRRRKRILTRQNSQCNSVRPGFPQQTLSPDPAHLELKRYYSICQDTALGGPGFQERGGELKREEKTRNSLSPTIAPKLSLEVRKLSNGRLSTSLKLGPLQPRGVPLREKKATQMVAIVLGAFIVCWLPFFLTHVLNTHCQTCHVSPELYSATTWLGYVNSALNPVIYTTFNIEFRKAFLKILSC
Protocol: (§1) The substance to be tested was either dissolved in methanol/Chremophor® (BASFAG) or in dimethyl sulfoxide and then diluted with water to the desired concentration.
(§2) Each assay mixture was run in triplicate.
The incubation buffer contained 50 mM tris, 120 mM NaCl, 5 mM KCl, 2 mM CaCl2, 2 mM MgCl2 and 0.1% bovine serum albumin, 10 μM quinolone and 0.1% ascorbic acid (prepared fresh daily). The buffer was adjusted to pH 7.4 with HCl.
(§3) After having been incubated at 25° C. for 60 minutes, the assay mixtures were filtered through a Whatman GF/B glass fiber filter under vacuum using a cell collecting device. The filters were transferred to scintillation viols using a filter transfer system. After 4 ml of Ultima Gold® (Packard) have been added, the samples were shaken for one hour and the radioactivity was then counted in a Beta-Counter (Packard, Tricarb 2000 or 2200CA). The cpm values were converted into dpm using a standard quench series and the program belonging to the instrument.
(§4) The inhibition curves were analyzed by means of iterative nonlinear regression analysis using the Statistical Analysis System (SAS) which is similar to the “LIGAND” program described by Munson and Rodbard.
(§5) The results of the receptro binding studies are expressed as receptor binding constants Ki(D2) and Ki(D3), respectively, as herein before described, and given in table 6.

[2] = biological target: T2, human dopamine D2L receptors (long isoform) (Homo sapiens, UniProt P14416); experiment: Dopamine D2L receptor binding, displacement of [125I] iodospiperone; settings: membranes of HEK-293 cells stably expressing human D2L; 0.01 nM [125I] iodospiperone; 25° C., 60 minutes; read-out: Ki(D2)*
T2 construct: expressed in transfected cells
T2 sequence (P14416 whole entry, canonical isoform): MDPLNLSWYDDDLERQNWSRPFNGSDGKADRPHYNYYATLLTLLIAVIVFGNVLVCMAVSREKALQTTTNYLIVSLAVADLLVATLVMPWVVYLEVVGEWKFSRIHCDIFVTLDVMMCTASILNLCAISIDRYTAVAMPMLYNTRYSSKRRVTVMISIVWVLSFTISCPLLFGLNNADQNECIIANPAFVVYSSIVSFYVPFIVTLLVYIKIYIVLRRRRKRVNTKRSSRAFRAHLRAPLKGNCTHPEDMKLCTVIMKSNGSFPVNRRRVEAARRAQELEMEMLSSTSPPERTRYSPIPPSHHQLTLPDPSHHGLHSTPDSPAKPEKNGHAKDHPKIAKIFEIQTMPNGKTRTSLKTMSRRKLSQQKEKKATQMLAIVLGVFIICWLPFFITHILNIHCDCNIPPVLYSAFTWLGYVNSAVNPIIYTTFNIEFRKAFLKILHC
Protocol: as §1, §2
The incubation buffer contained 50 mM tris, 120 mM NaCl, 5 mM KCl, 2 mM CaCl2, 2 mM MgCl2 and 0.1% bovine serum albumin. The buffer was adjusted to pH 7.4 with HCl.
as §3, §4, §5

| SMILES | pKi [1] | Ki(D2)*/Ki(D3)* [1] | pKi [2] |
| --- | --- | --- | --- |
| CCCN1CC[C@@H](c2ccc(NS(=O)(=O)c3ccc(C(C)CC)cc3)cc2)C1.Cl (stereo partly drawn) [Example 33, 4-sec-Butyl-N-[4-((S)-1-propyl-pyrrolidin-3-yl)-phenyl]-benzenesulfonamide hydrochloride] | 9.77 | 33 | 8.26 |
| O=S(=O)(Nc1ccc([C@@H]2CCNC2)cc1)c1ccc(CCCF)cc1 [Example 108, 4-(3-Fluoro-propyl)-N—((S)-4-pyrrolidin-3-yl-phenyl)-benzenesulfonamide] | 7.95 | 18 | 6.69 |
| CCCN1CC[C@@H](c2ccc(NS(=O)(=O)c3ccc(C(C)C)cc3)cc2)C1.Cl [Example 1, 4-Isopropyl-N-[4-((S)-1-propyl-pyrrolidin-3-yl)-phenyl]-benzenesulfonamide hydrochloride] | 10.05 | 89 | 8.12 |
| CCCN1CC[C@@H](c2ccc(NS(=O)(=O)c3ccc(C4CCC4)cc3)cc2)C1 [Example 54, 4-Cyclobutyl-N-[4-((S)-1-propyl-pyrrolidin-3-yl)-phenyl]-benzenesulfonamide] | 9.49 | 27 | 8.06 |
| CCCN1CC[C@@H](c2ccc(NS(=O)(=O)c3ccc(C(C)(C)CC)cc3)cc2)C1.Cl [Example 2, 4-(1,1-Dimethyl-propyl)-N-[4-((S)-1-propyl-pyrrolidin-3-yl)-phenyl]-benzenesulfonamide hydrochloride] | 9.62 | 9 | 8.64 |
| C=C(C)c1ccc(S(=O)(=O)Nc2ccc([C@@H]3CCN(CCC)C3)cc2)s1 [Example 29, 5-Isopropenyl-thiophene-2-sulfonic acid [4-((S)-1-propyl-pyrrolidin-3-yl)-phenyl]-amide] | 9.17 | 41 | 7.56 |
| CC(C)c1ccc(S(=O)(=O)Nc2ccc([C@@H]3CCN(CCCO)C3)cc2)cc1 [Example 53, N-{4-[(S)-1-(3-Hydroxy-propyl)-pyrrolidin-3-yl]-phenyl}-4-isopropyl-benzenesulfonamide] | 9.39 | 14 | 8.23 |
| C=CCN1CC[C@H](c2ccc(NS(=O)(=O)c3ccc(C(C)C(F)(F)F)cc3)cc2)C1 (stereo partly drawn) [Example 112, N-[4-((R)-1-Allyl-pyrrolidin-3-yl)-phenyl]-4-(2,2,2-trifluoro-1-methyl-ethyl)benzenesulfonamide] | 7.99 | 116 | 5.92 |
| CCCN1CC[C@@H](c2ccc(NS(=O)(=O)c3ccc(C4CC4)cc3)cc2)C1 [Example 27, 4-Cyclopropyl-N-[4-((S)-1-propyl-pyrrolidin-3-yl)-phenyl]-benzenesulfonamide] | 9.64 | 30 | 8.15 |
| CCCN1CC[C@@H](c2ccc(NS(=O)(=O)c3ccc(-c4csnn4)cc3)cc2)C1 [Example 65, N-[4-((S)-1-Propyl-pyrrolidin-3-yl)-phenyl]-4-[1,2,3]thiadiazol-4-yl-benzenesulfonamide] | 8.17 | 29 | 6.71 |
| CCCN1CC[C@@H](c2ccc(NS(=O)(=O)c3ccc(C(C)=O)cc3)cc2)C1 [Example 26, 4-Acetyl-N-[4-((S)-1-propyl-pyrrolidin-3-yl)-phenyl]-benzenesulfonamide] | 7.55 | 46 | 5.89 |
| C[C@@H](CF)c1ccc(S(=O)(=O)Nc2ccc([C@@H]3CCNC3)cc2)cc1 [Example 110, 4-((R)-2-Fluoro-1-methyl-ethyl)-N—((S)-4-pyrrolidin-3-yl-phenyl)-benzenesulfonamide] | 8.18 | 135 | 6.05 |
| CCCN1CC[C@@H](c2ccc(NS(=O)(=O)c3ccc([C@@H](C)CF)cc3)cc2)C1 [Example 93, 4-((R)-2-Fluoro-1-methyl-ethyl)-N-[4-((S)-1-propyl-pyrrolidin-3-yl)-phenyl]-benzenesulfonamide] | 9.32 | 31 | 7.83 |
| CCCN1CC(c2ccc(NS(=O)(=O)c3ccc(CCF)cc3)cc2)C1 [Example 56, 4-(2-Fluoro-ethyl)-N-[4-(1-propyl-azetidin-3-yl)-phenyl]-benzenesulfonamide] | 7.61 | 109 | 5.57 |
| O=S(=O)(Nc1ccc([C@@H]2CCNC2)cc1)c1ccc(OC(F)(F)F)cc1 [Example 102, N—((S)-4-Pyrrolidin-3-yl-phenyl)-4-trifluoromethoxy-benzenesulfonamide] | 7.28 | 52 | 5.57 |
| CCCN1CC[C@@H](c2ccc(NS(=O)(=O)c3ccc(CCF)cc3)cc2)C1.Cl [Example 86, 4-(2-Fluoro-ethyl)-N-[4-((S)-1-propyl-pyrrolidin-3-yl)-phenyl]-benzenesulfonamide, hydrochloride] | 8.93 | 101 | 6.92 |
| CCCN1CC[C@@H](c2ccc(NS(=O)(=O)c3ccc4c(c3)CCO4)cc2)C1 [Example 14, 2,3-Dihydro-benzofuran-5-sulfonic acid [4-((S)-1-propyl-pyrrolidin-3-yl)-phenyl]-amide] | 8.47 | 37 | 6.91 |
| CCCN1CC[C@@H](c2ccc(NS(=O)(=O)c3ccc(Br)cc3)cc2)C1.Cl [Example 25, 4-Bromo-N-[4-((S)-1-propyl-pyrrolidin-3-yl)-phenyl]-benzenesulfonamide hydrochloride] | 8.80 | 60 | 7.02 |
| CCCN1CC[C@@H](c2ccc(NS(=O)(=O)c3ccc(C(C)C(F)F)cc3)cc2)C1 (stereo partly drawn) [Example 77, 4-(2,2-Difluoro-1-methyl-ethyl)-N-[4-((S)-1-propyl-pyrrolidin-3-yl)-phenyl]-benzenesulfonamide] | 8.88 | 37 | 7.30 |
| CCCN1CC[C@@H](c2ccc(NS(=O)(=O)c3ccc(F)c(F)c3)cc2)C1.Cl [Example 126, 3,4-Difluoro-N-[4-((S)-1-propyl-pyrrolidin-3-yl)-phenyl]-benzenesulfonamide hydrochloride] | 7.47 | 30 | 5.99 |
| CCCN1CC[C@@H](c2ccc(NS(=O)(=O)c3ccc(N4CCC4)cc3)cc2)C1 [Example 75, 4-Azetidin-1-yl-N-[4-((S)-1-propyl-pyrrolidin-3-yl)-phenyl]-benzenesulfonamide] | 9.20 | 19 | 7.91 |
| C=C(C)c1ccc(S(=O)(=O)Nc2ccc([C@@H]3CCN(CCC)C3)cc2)cc1F [Example 20, 3-Fluoro-4-isopropenyl-N-[4-((S)-1-propyl-pyrrolidin-3-yl)-phenyl]-benzenesulfonamide] | 9.52 | 24 | 8.14 |
| CC(C)c1ccc(S(=O)(=O)Nc2ccc([C@@H]3CCN(CCCF)C3)cc2)cc1 [Example 38, 4-Isopropyl-N-[4-((S)-1-(3-fluoro-propyl)-pyrrolidin-3-yl)-phenyl]-benzenesulfonamide] | 9.54 | 21 | 8.20 |
| CCCN1CCC[C@@H](c2ccc(NS(=O)(=O)c3ccc(OC(F)(F)F)cc3)cc2)C1 [Example 133, N-[4-((S)-1-Propyl-piperidin-3-yl)-phenyl]-4-trifluoromethoxy-benzenesulfonamide] | 8.14 | 26 | 6.72 |
| CCCN1CC[C@@H](c2ccccc2NS(=O)(=O)c2ccc(-c3cnco3)cc2)C1 [Example 71, 4-Oxazol-5-yl-N-[2-((S)-1-propyl-pyrrolidin-3-yl)-phenyl]-benzenesulfonamide] | 8.32 | 11 | 7.28 |
| C[C@H](CF)c1ccc(S(=O)(=O)Nc2ccc([C@@H]3CCNC3)cc2)cc1 [Example 109, 4-((S)-2-Fluoro-1-methyl-ethyl)-N—((S)-4-pyrrolidin-3-yl-Phenyl)-benzenesulfonamide] | 8.13 | 35 | 6.59 |
| CCCN1CC(c2ccc(NS(=O)(=O)c3ccc([C@@H](C)CF)cc3)cc2)C1 [Example 59, 4-((R)-2-Fluoro-1-methyl-ethyl)-N-[4-(1-propyl-azetidin-3-yl)-phenyl]-benzenesulfonamide] | 8.19 | 238 | 5.82 |
| CCCN1CC[C@H](c2ccc(NS(=O)(=O)c3ccc(C(C)C)cc3)cc2)C1.Cl [Example 5, 4-(Isopropyl)-N-[4-((R)-1-propyl-pyrrolidin-3-yl)-phenyl]benzenesulfonamide hydrochloride] | 8.54 | 93 | 6.57 |
| CCCN1CC(c2ccc(NS(=O)(=O)c3ccc(C(C)C(F)F)cc3)cc2)C1 (stereo not drawn) [Example 64, 4-(2,2-Difluoro-1-methyl-ethyl)-N-[4-(1-propyl-azetidin-3-yl)-phenyl]-benzenesulfonamide] | 8.68 | 164 | 6.46 |
